# Measured values published in PubChem BioAssay (NCI).
#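 Exposure lasted 48 hours, with cells grown in 96-well plates and compounds tested at five concentrations. At the TGI there is no net growth.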
# Key:
# Assay in all cases: growth of human tumour cells (NCI), 48 h
# K-562 leukemia = tested on: K-562 leukemia
# HT29 colon = tested on: HT29 colon
# LOX IMVI melanoma = tested on: LOX IMVI melanoma
# CAKI-1 renal = tested on: CAKI-1 renal
# DMS 273 small cell lung = tested on: DMS 273 small cell lung
# SK-OV-3 ovarian = tested on: SK-OV-3 ovarian
# MOLT-4 leukemia = tested on: MOLT-4 leukemia
# KM20L2 colon = tested on: KM20L2 colon
# COLO 205 colon = tested on: COLO 205 colon
# HOP-62 NSCLC = tested on: HOP-62 NSCLC
# LXFL 529 NSCLC = tested on: LXFL 529 NSCLC
# SF-268 CNS = tested on: SF-268 CNS
# SF-295 CNS = tested on: SF-295 CNS
# EKVX NSCLC = tested on: EKVX NSCLC
# OVCAR-8 ovarian = tested on: OVCAR-8 ovarian
# NCI-H460 lung = tested on: NCI-H460 lung
# SK-MEL-5 melanoma = tested on: SK-MEL-5 melanoma
# TK-10 renal = tested on: TK-10 renal
# SK-MEL-2 melanoma = tested on: SK-MEL-2 melanoma
# SN12C renal = tested on: SN12C renal
# XF 498 CNS = tested on: XF 498 CNS
# HOP-92 NSCLC = tested on: HOP-92 NSCLC
# HL-60(TB) leukemia = tested on: HL-60(TB) leukemia
# SF-539 CNS = tested on: SF-539 CNS
# M14 melanoma = tested on: M14 melanoma
# SNB-19 CNS = tested on: SNB-19 CNS
# A498 renal = tested on: A498 renal
# OVCAR-4 ovarian = tested on: OVCAR-4 ovarian
# NCI-H23 lung = tested on: NCI-H23 lung
# IGROV1 ovarian = tested on: IGROV1 ovarian
# HCC-2998 colon = tested on: HCC-2998 colon
# SW-620 colon = tested on: SW-620 colon
# SK-MEL-28 melanoma = tested on: SK-MEL-28 melanoma
# RPMI-8226 leukemia = tested on: RPMI-8226 leukemia
# HCT-15 colon = tested on: HCT-15 colon
# A549 NSCLC = tested on: A549 NSCLC
# OVCAR-5 ovarian = tested on: OVCAR-5 ovarian
# HCT-116 colon = tested on: HCT-116 colon
# UACC-62 melanoma = tested on: UACC-62 melanoma
# NCI-H522 lung = tested on: NCI-H522 lung
# U251 CNS = tested on: U251 CNS
# M19-MEL melanoma = tested on: M19-MEL melanoma
# UO-31 renal = tested on: UO-31 renal
# SR leukemia = tested on: SR leukemia
# CCRF-CEM leukemia = tested on: CCRF-CEM leukemia
# SNB-75 CNS = tested on: SNB-75 CNS
# RXF 393 renal = tested on: RXF 393 renal
# KM12 colon = tested on: KM12 colon
# UACC-257 melanoma = tested on: UACC-257 melanoma
# DMS 114 small cell lung = tested on: DMS 114 small cell lung
# ACHN renal = tested on: ACHN renal
# NCI-H226 lung = tested on: NCI-H226 lung
# OVCAR-3 ovarian = tested on: OVCAR-3 ovarian
# RXF-631 renal = tested on: RXF-631 renal
# MALME-3M melanoma = tested on: MALME-3M melanoma
# 786-0 renal = tested on: 786-0 renal
# SNB-78 CNS = tested on: SNB-78 CNS
# DLD-1 colon = tested on: DLD-1 colon
compound,measurement,setting,value
COC(=O)C(Cc1ccc(N(C)C)cc1)(NC(=O)c1ccccc1)P(=O)(OC)OC (configuration not stated),TGI,K-562 leukemia,> 100 µM
same,TGI,HT29 colon,> 100 µM
same,TGI,LOX IMVI melanoma,> 100 µM
same,TGI,CAKI-1 renal,> 100 µM
same,TGI,DMS 273 small cell lung,> 100 µM
same,TGI,SK-OV-3 ovarian,> 100 µM
same,TGI,MOLT-4 leukemia,> 100 µM
same,TGI,KM20L2 colon,> 100 µM
same,TGI,COLO 205 colon,> 100 µM
same,TGI,HOP-62 NSCLC,> 100 µM
same,TGI,LXFL 529 NSCLC,> 100 µM
same,TGI,SF-268 CNS,> 100 µM
same,TGI,SF-295 CNS,> 100 µM
same,TGI,EKVX NSCLC,> 100 µM
same,TGI,OVCAR-8 ovarian,> 100 µM
same,TGI,NCI-H460 lung,> 100 µM
same,TGI,SK-MEL-5 melanoma,> 100 µM
same,TGI,TK-10 renal,> 100 µM
same,TGI,SK-MEL-2 melanoma,> 100 µM
same,TGI,SN12C renal,> 100 µM
same,TGI,XF 498 CNS,> 100 µM
same,TGI,HOP-92 NSCLC,> 100 µM
same,TGI,HL-60(TB) leukemia,> 100 µM
same,TGI,SF-539 CNS,> 100 µM
same,TGI,M14 melanoma,> 100 µM
same,TGI,SNB-19 CNS,> 100 µM
same,TGI,A498 renal,> 100 µM
same,TGI,OVCAR-4 ovarian,> 100 µM
same,TGI,NCI-H23 lung,> 100 µM
same,TGI,IGROV1 ovarian,> 100 µM
same,TGI,HCC-2998 colon,> 100 µM
same,TGI,SW-620 colon,> 100 µM
same,TGI,SK-MEL-28 melanoma,> 100 µM
same,TGI,RPMI-8226 leukemia,> 100 µM
same,TGI,HCT-15 colon,> 100 µM
same,TGI,A549 NSCLC,> 100 µM
same,TGI,OVCAR-5 ovarian,> 100 µM
same,TGI,HCT-116 colon,> 100 µM
same,TGI,UACC-62 melanoma,> 100 µM
same,TGI,NCI-H522 lung,> 100 µM
same,TGI,U251 CNS,> 100 µM
same,TGI,M19-MEL melanoma,> 100 µM
same,TGI,UO-31 renal,> 100 µM
same,TGI,SR leukemia,> 100 µM
same,TGI,CCRF-CEM leukemia,> 100 µM
same,TGI,SNB-75 CNS,> 100 µM
same,TGI,RXF 393 renal,> 100 µM
same,TGI,KM12 colon,> 100 µM
same,TGI,UACC-257 melanoma,> 100 µM
same,TGI,DMS 114 small cell lung,> 100 µM
same,TGI,ACHN renal,> 100 µM
same,TGI,NCI-H226 lung,> 100 µM
CC1CC(C)C2OC2(C)C[C@H](C)C(=O)NC(C)C(=O)N(C)[C@H](Cc2c(Br)[nH]c3ccccc23)C(=O)N[C@@H](c2ccc(O)cc2)CC(=O)O1 (some centres not stated),TGI,K-562 leukemia,> 77.4 µM
same,TGI,LOX IMVI melanoma,1.66 µM
same,TGI,OVCAR-3 ovarian,9.61 µM
same,TGI,RXF-631 renal,> 100 µM
same,TGI,CAKI-1 renal,4.71 µM
same,TGI,DMS 273 small cell lung,83.1 µM
same,TGI,MALME-3M melanoma,14 µM
same,TGI,SK-OV-3 ovarian,3.04 µM
same,TGI,MOLT-4 leukemia,57.3 µM
same,TGI,KM20L2 colon,> 50.1 µM
same,TGI,COLO 205 colon,0.145 µM
same,TGI,HOP-62 NSCLC,1.4 µM
same,TGI,786-0 renal,19.1 µM
same,TGI,LXFL 529 NSCLC,13.3 µM
same,TGI,SNB-78 CNS,0.763 µM
same,TGI,SF-295 CNS,31.3 µM
same,TGI,EKVX NSCLC,75.8 µM
same,TGI,OVCAR-8 ovarian,> 52.7 µM
same,TGI,NCI-H460 lung,> 100 µM
same,TGI,SK-MEL-5 melanoma,17.1 µM
same,TGI,TK-10 renal,5.44 µM
same,TGI,SK-MEL-2 melanoma,0.876 µM
same,TGI,SN12C renal,> 100 µM
same,TGI,XF 498 CNS,4.31 µM
same,TGI,HOP-92 NSCLC,0.638 µM
same,TGI,HL-60(TB) leukemia,0.783 µM
same,TGI,SF-539 CNS,0.383 µM
same,TGI,M14 melanoma,19.5 µM
same,TGI,SNB-19 CNS,0.544 µM
same,TGI,A498 renal,1.79 µM
same,TGI,OVCAR-4 ovarian,1.09 µM
same,TGI,NCI-H23 lung,> 40.4 µM
same,TGI,IGROV1 ovarian,0.683 µM
same,TGI,HCC-2998 colon,0.505 µM
same,TGI,SW-620 colon,> 90.2 µM
same,TGI,SK-MEL-28 melanoma,12.2 µM
same,TGI,RPMI-8226 leukemia,5.43 µM
same,TGI,HCT-15 colon,> 100 µM
same,TGI,DLD-1 colon,> 100 µM
same,TGI,A549 NSCLC,> 100 µM
same,TGI,OVCAR-5 ovarian,18.8 µM
same,TGI,HCT-116 colon,> 33.1 µM
same,TGI,UACC-62 melanoma,14.4 µM
same,TGI,NCI-H522 lung,0.856 µM
same,TGI,U251 CNS,2.98 µM
same,TGI,UO-31 renal,27.3 µM
same,TGI,SR leukemia,> 100 µM
same,TGI,CCRF-CEM leukemia,> 65 µM
same,TGI,SNB-75 CNS,2.32 µM
same,TGI,RXF 393 renal,4.81 µM
same,TGI,KM12 colon,> 100 µM
same,TGI,UACC-257 melanoma,13.3 µM
same,TGI,DMS 114 small cell lung,2.63 µM
same,TGI,ACHN renal,27.2 µM
same,TGI,NCI-H226 lung,2.23 µM
